In brackets after ≈: the same amount, converted by molar mass.

For data set [1], the system named is Helicobacter pylori HI-0001. Briefly: Antimicrobial activity, agar plate dilution method (strain HI-0001). The class given is cell-based. The following applies: HI0001, 48 h, two days at 37° C., read-out: MINIMUM GROWTH INHIBITION CONCENTRATION
From the text:
(§1) Helicobacter pylori is Gram negative microaerophile which has been recently isolated from human tunica mucosa ventriculi and seems to serve for pathopoiesis and recurrence of ulcer in alimentary canal. The compounds of formula (I) show an antimicrobial activity to inhibit the growth of Helicobacter pylori.
(§2) The media used were that of Muller-Hinton liquid medium (BBL) containing 7% horse serum, and of Heart-Infusin agar medium (Difco) containing 5% horse defibrinized blood. The culture was incubated for two days at 37° C. using Gaspack (BBL) without a catalyst.

The subject of data set [2] is Helicobacter pylori HI-0015. Briefly: Antimicrobial activity, agar plate dilution method (strain HI-0015). The class given is cell-based. The following applies: HI0015, 48 h, two days at 37° C., read-out: MINIMUM GROWTH INHIBITION CONCENTRATION
From the text: as §1, §2

Data set [3] has as its system Water-immersion induced stress ulcer. Briefly: Water-immersion induced stress ulcer. The format is in vivo, Wister male rats. As to conditions: rats, single dose 30 mg/kg in 0.5% CMC one hour prior to stressing (water immersion, 6 h); for inhibition in vivo at 30 mg/kg: Rattus norvegicus. How it is done:
Wister male rats (11-week age) fasted for 18 hours were placed in a restraint cage, which was in turn immersed to a depth of the pectoral region in water at 20 to 22° C. to leave the rats under stress for six hours. Then, the rats were drawn up from the water and put down by vertebral dislocation. Afterwards, the stomach was removed, infused with 5 ml of a 5% aqueous solution of formalin and was wholly immersed in the same solution for 30 minutes for fixation. The fixed sample was dissected along the curvature ventriculi major, and the ulcer regions were measured along their major length (in mm) by means of slide calipers. The total sum of the measurements per rat is a value of ulcer index.
The compounds under test shown in TABLE 3, suspended in 0.5% carboxymethylcellulose (CMC), were administered to the rats at a single dose of 30 mg/kg body weight of the compound one hour prior to the stressing. To a control group, only 0.5% CMC was administered. The antiulcer activity was calculated according to the following equation: [formula]

The next data set is described as follows: Acute toxicity. The following applies: mice, three per group. The format is in vivo.
The subject of the next data set is Ethanol-induced ulcer. Briefly: Ethanol-induced ulcer. The format is in vivo, Donryu masculine rats. The following applies: rats; 100% ethanol 5 ml/kg orally; compound in 0.5% CMC orally at 5 ml/kg; one hour. Here is the method:
Five (5) ml/kg of 100% ethanol was orally administered to Donryu masculine rats fasted for 48 hours and dehydrated for 24 hours. Then, the compounds under test, suspended in 0.5% CMC, were orally administered to the rats at a dose of 5 ml/kg body weight. One hour later, the rats were put down in a similar manner as mentioned above to remove and treat the stomach.

Consider `CC1(C)S[C@@H]2[C@H](NC(=O)[C@H](N)c3ccccc3)C(=O)N2[C@H]1C(=O)O` [Aminobenzylpenicillin, reference compound], for which the values for the MIC in data set [1] and in data set [2] were 0.025 µg/mL (≈ 0.0715 µM) and 0.2 µg/mL (≈ 0.572 µM), respectively.

As usually defined, the inhibition in vivo is the change of the read-out against control, counted positive when it falls. Low readings indicate little suppression, high ones strong suppression. In data set [3], `CCOCC[S+]([O-])c1nc(-c2cccnc2)cs1` (stereo not shown) [Example 2, 2-[(2-ethoxyethyl)sulfinyl]-4-(3-pyridyl)thiazole] had an inhibition in vivo at 30 mg/kg of 72.5%.

In data set [3], `CC(C)N(CC[S+]([O-])c1nc(-c2cccnc2)cs1)C(C)C` (stereo not shown) [Example 8] displayed an inhibition in vivo at 30 mg/kg of 70.5%.

In the case of `CCOCC[S+]([O-])c1ncc(-c2ccccc2)s1` (stereo not shown) [Example 12, 2-[(2-ethoxyethyl)sulfinyl]-5-phenylthiazole], in data set [3], 30 mg/kg produced 52.5% inhibition in vivo.

Take `CCOCC[S+]([O-])c1nc(-c2ccsc2)cs1` (stereo not shown) [Example 14, 2-[(2-ethoxyethyl)sulfinyl]-4-(3-thienyl)thiazole]: the MIC in data set [1] stood at 50 µg/mL (≈ 174 µM); in data set [2] it was 100 µg/mL (≈ 348 µM). Further, the inhibition in vivo at 30 mg/kg in data set [3] is 62.7%.

In the case of `CCNC(=O)NCC[S+]([O-])c1nc2cc(Cl)ccc2s1` (stereo not shown) [Example 22, N-(5-chlorobenzothiazol-2-yl)sulfinylethyl--N'-ethylurea], in data set [3], the inhibition in vivo at 30 mg/kg was 63.1%.

In the case of `O=C(NCCCl)NCCSc1nc2cc(Cl)ccc2s1` [Example 23, N-(5-chlorobenzothiazol-2-yl)thioethyl--N'-(2-chloroethyl)urea], the MIC in data set [1] and in data set [2] was 12.5 µg/mL (≈ 35.7 µM) in each case.

In data set [3], `O=C(NCCCl)NCC[S+]([O-])c1nc2cc(Cl)ccc2s1` (stereo not shown) [Example 24, N-(5-chlorobenzothiazol-2-y1)sulfinylethyl--N'-(2-chloroethyl)urea] showed an inhibition in vivo at 30 mg/kg of 70.1%.

As to `CCNC(=S)NCCSc1nc2cc(Cl)ccc2s1` [Example 25, N-(5-chlorobenzothiazol-2-yl)thioethyl--N'-ethylthiourea], the MIC in data set [1] and in data set [2] was 0.025 µg/mL (≈ 0.0753 µM) in each case. Further, in data set [3], the inhibition in vivo at 30 mg/kg worked out at 64.2%.

Take `CCN=C(NC#N)NCCSc1nc2cc(Cl)ccc2s1` [Example 27, N-(5-chlorobenzothiazol-2-yl)thioethyl--N'-cyano--N"-ethylguanidine]: the MIC in data set [1] and in data set [2] was 12.5 µg/mL (≈ 36.8 µM) each time.

Regarding `CCN=C(NC#N)NCC[S+]([O-])c1nc2cc(Cl)ccc2s1` (stereo not shown) [Example 28, N-(5-chlorobenzothiazol-2-yl)sulfinylethyl--N'-cyano--N"-ethylguanidine], the inhibition in vivo at 30 mg/kg in data set [3] turned out to be 57%.

For the molecule `Clc1ccc2sc(SCCN3CCOCC3)nc2c1` [Example 31, 5-chloro-2-[(2-morpholinoethyl)thio]benzothiazole], the “Acute toxicity (deaths)” value in “Acute toxicity” (intraperitoneal dose of 100 mgkg) and in “Acute toxicity” (peroral dose of 300 mgkg) was “none of the animals were sacrificed” each time.

On to `[O-][S+](CCN1CCOCC1)c1nc2cc(Cl)ccc2s1` (stereo not shown) [Example 32, 5-chloro-2-[(2-morpholinoethyl)sulfinyl]benzothiazole], for which the MIC in data set [1] stood at 1.56 µg/mL (≈ 4.71 µM); in data set [2], 3.13 µg/mL (≈ 9.46 µM). In the data set with Ethanol-induced ulcer, this molecule registered a depression of erosion of 93.0%. This molecule showed an inhibition in vivo at 30 mg/kg in data set [3] of 83.1%.

With `[O-][S+](CCN1CCOCC1)c1nc2cccc(Cl)c2s1` (stereo not shown) [Example 35, 7-chloro-2-[(2-morpholinoethyl)sulfinyl]benzothiazole], the results for the MIC in data set [1] and in data set [2] were 3.13 µg/mL (≈ 9.46 µM) and 6.25 µg/mL (≈ 18.9 µM), respectively. Moreover, at 30 mg/kg the inhibition in vivo in data set [3] was 72.1%.

For the molecule `[O-][S+](CCN1CCOCC1)c1nc2ccc(Cl)cc2s1` (stereo not shown) [Example 37, 6-chloro-2-[(2-morpholinoethyl)sulfinyl]benzothiazole], the MIC in data set [1] is 3.13 µg/mL (≈ 9.46 µM); in data set [2], 6.25 µg/mL (≈ 18.9 µM). In data set [3], the inhibition in vivo at 30 mg/kg amounted to 78%.

Turning to `CN1CCCC1CC[S+]([O-])c1nc2cc(Cl)ccc2s1` (stereo not shown) [Example 47, 5-chloro-2-{[2-(N-methylpyrrolidin-2-Y1)ethyl]sulfinyl}benzothiazole], the MIC in data set [1] was determined as 0.39 µg/mL (≈ 1.19 µM); in data set [2], 3.13 µg/mL (≈ 9.52 µM).

In data set [3], `[O-][S+](CCN1CCOCC1)c1nc2ccc(Cl)cc2[nH]1` (stereo not shown) [Example 49, 5-chloro-2-[(2-morpholinoethyl)sulfinyl]benzimidazole] gave an inhibition in vivo at 30 mg/kg of 63.6%.

`CCOCC[S+]([O-])c1nc2cccc(Cl)c2s1` (stereo not shown) [Example 61, 7-chloro-2-[(2-ethoxyethyl)sulfinyl]benzothiazole]: in data set [3], at 30 mg/kg the inhibition in vivo was 61.8%.

As for `CCOCC[S+]([O-])c1nc2ccc(Cl)cc2s1` (stereo not shown) [Example 63, 6-chloro-2-[(2-ethoxyethyl)sulfinyl]benzothiazole], the MIC in data set [1] was 3.13 µg/mL (≈ 10.8 µM); in data set [2], 6.25 µg/mL (≈ 21.6 µM). This molecule also displayed an inhibition in vivo at 30 mg/kg in data set [3] of 76.5%.

In the case of `[O-][S+](CCOCCCl)c1nc2cc(Cl)ccc2s1` (stereo not shown) [Example 67, 5-chloro-2-{[2-(2-chloroethoxy)ethyl]sulfinyl}benzothiazole], the “Inhibition (%)” value in data set [3] is 53.3%.

In turn, `CCOCC[S+]([O-])c1nc2ccc(OC)cc2[nH]1` (stereo not shown) [Example 72, 5-methoxy-2-[(2-ethoxyethyl)sulfinyl]benzimidazole] yielded an inhibition in vivo at 30 mg/kg in data set [3] of 65.6%.

As to `CCOCC[S+]([O-])c1nc2cc(C(F)(F)F)ccc2s1` (stereo not shown) [Example 76, 5-trifluoromethyl-2-[(2-ethoxyethyl)sulfinyl]benzothiazole], in data set [3], the inhibition in vivo at 30 mg/kg is 61.3%.

Consider `CCOCC[S+]([O-])c1nc2cc([N+](=O)[O-])ccc2s1` (stereo not shown) [Example 78, 5-nitro-2-[(2-ethoxyethyl)sulfinyl]benzothiazole], for which the MIC in data set [1] and in data set [2] was 6.25 µg/mL (≈ 20.8 µM) each time. Further, the inhibition in vivo at 30 mg/kg in data set [3] is 60.7%.

Regarding `CC1COc2c(N3CCN(C)CC3)c(F)cc3c(=O)c(C(=O)O)cn1c23` (stereo not shown) [Ofloxacin, reference compound], the MIC in data set [1] and in data set [2] was 0.78 µg/mL (≈ 2.16 µM) each time.

`COc1ccc2[nH]c([S+]([O-])Cc3ncc(C)c(OC)c3C)nc2c1` (stereo not shown) [Omeprazole, reference compound] registered an inhibition in vivo at 30 mg/kg in data set [3] of 90%.

(Values after patent publication US5171746A, “Thiazole and imidazole derivatives and antiulcer composition containing same” (priority 1990, dated 1992).)
